This is an account of results in patent publication US12588678B2, “Oxazoline compound, synthesis method therefor and application thereof” (NANKAI UNIVERSITY, priority 2019, dated 2026).

Assay [1] has as its system Tetranychus cinnabarinus mite larvae. Nature of the assay: Larvicidal activity test, dipping method on bean seedling leaves. The conditions noted are these: for acaricidal activity compared with etoxazole: Tetranychus cinnabarinus eggs and larvae, etoxazole as reference; for mortality at 0.001 µg/mL / mortality at 0.01 µg/mL / mortality at 0.1 µg/mL / mortality at 0.5 µg/mL / mortality at 1 µg/mL / mortality at 10 µg/mL / mortality at 100 µg/mL / mortality at 200 µg/mL / mortality at 0.05 µg/mL: Tetranychus cinnabarinus, 96 h, checked after 4 days; for mortality at 0.001 µg/mL: read-out: mortality of mite larvae (%), 0.001 mg/L; for mortality at 0.01 µg/mL: read-out: mortality of mite larvae (%), 0.01 mg/L; for mortality at 0.1 µg/mL: read-out: mortality of mite larvae (%), 0.1 mg/L; for mortality at 0.5 µg/mL: read-out: mortality of mite larvae (%), 0.5 mg/L; for mortality at 1 µg/mL: read-out: mortality of mite larvae (%), 1 mg/L; for mortality at 10 µg/mL: read-out: mortality of mite larvae (%), 10 mg/L; for mortality at 100 µg/mL: read-out: mortality of mite larvae (%), 100 mg/L; for mortality at 200 µg/mL: read-out: mortality of mite larvae (%), 200 mg/L; for mortality at 0.05 µg/mL: read-out: mortality of mite larvae (%), 0.05 mg/L. The assay is classed as in vivo. A digest of the protocol: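 Leaves bearing mite larvae, hatched from eggs laid over 24 h and grown 5 days at 25° C (≥60 mites per leaf), were dipped 5–6 s in compound solution with Tween. Mortality was scored after 4 days of culture against an additive-only blank. Three replicates per compound.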

Assay [2] relates to Tetranychus cinnabarinus mite eggs. Kind of assay: Activity against mite eggs, dipping method on bean seedling leaves. The assay is classed as in vivo. The conditions noted are these: Tetranychus cinnabarinus, 96 h, checked after 4 days; for mortality at 0.001 µg/mL: read-out: mortality of mite eggs (%), 0.001 mg/L; for mortality at 0.01 µg/mL: read-out: mortality of mite eggs (%), 0.01 mg/L; for mortality at 0.5 µg/mL: read-out: mortality of mite eggs (%), 0.5 mg/L; for mortality at 1 µg/mL: read-out: mortality of mite eggs (%), 1 mg/L; for mortality at 10 µg/mL: read-out: mortality of mite eggs (%), 10 mg/L; for mortality at 100 µg/mL: read-out: mortality of mite eggs (%), 100 mg/L; for mortality at 200 µg/mL: read-out: mortality of mite eggs (%), 200 mg/L; for mortality at 0.1 µg/mL: read-out: mortality of mite eggs (%), 0.1 mg/L. A digest of the protocol:
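Female T. cinnabarinus laid eggs on bean seedling leaves for 24 h at 25° C., adults removed; after 1 day, egg-bearing leaves dipped 5-6 s in test solution. Mortality of eggs scored after 4 further days of greenhouse culture, versus additive-only blank; three replicates per compound.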

Regarding `Fc1cccc(F)c1C1=NC(c2ccc(COc3ccc(Cl)cc3)cc2)CO1` (stereo not drawn) [Compound R2-19], in assay [1], the “acaricidal activity compared with etoxazole” value is given as “higher acaricidal activity than etoxazole”, the mortality at 0.001 µg/mL stood at 8%, the mortality at 0.01 µg/mL turned out to be 30% and the mortality at 0.1 µg/mL came out at 85%. Further, in assay [1], the mortality at 0.5 µg/mL stood at 72%, the mortality at 1 µg/mL turned out to be 88%, the mortality at 10 µg/mL is 90% and the mortality at 100 µg/mL was determined as 100%. In addition, the mortality at 200 µg/mL in assay [1] was 100%. Moreover, in assay [2], the mortality at 0.001 µg/mL turned out to be 10%, the mortality at 0.01 µg/mL was 32%, the mortality at 0.5 µg/mL is 80% and the mortality at 1 µg/mL is 90%. Also, in assay [2], the mortality at 10 µg/mL was determined as 100%, the mortality at 100 µg/mL came out at 100% and the mortality at 200 µg/mL amounted to 100%.
In the case of `Fc1cccc(F)c1C1=NC(c2ccc(COc3ccc(Br)cc3)cc2)CO1` (stereo not drawn) [Compound R2-20], in assay [1], the mortality at 1 µg/mL turned out to be 40%, the mortality at 10 µg/mL worked out at 80%, the mortality at 100 µg/mL turned out to be 92% and the mortality at 200 µg/mL came to 100%. Further, in assay [2], the mortality at 1 µg/mL was 60%, the mortality at 10 µg/mL came to 90%, the mortality at 100 µg/mL was determined as 100% and the mortality at 200 µg/mL came out at 100%.
On to `Cc1ccc(OCc2ccc(C3COC(c4c(F)cccc4F)=N3)cc2)cc1` (stereo not drawn) [Compound R2-22], for which, in assay [1], the mortality at 1 µg/mL is 55%, the mortality at 10 µg/mL is 88%, the mortality at 100 µg/mL is 96% and the mortality at 200 µg/mL came to 100%. For the same molecule, in assay [2], the mortality at 0.1 µg/mL is 80%, the mortality at 1 µg/mL amounted to 90%, the mortality at 10 µg/mL was 100% and the mortality at 100 µg/mL came out at 100%. Further, the mortality at 200 µg/mL in assay [2] stood at 100%.
In the case of `Fc1cccc(F)c1C1=NC(c2ccc(COc3ccc(C(F)(F)F)cc3)cc2)CO1` (stereo not drawn) [Compound R2-23], in assay [1], the mortality at 0.1 µg/mL came out at 75%, the mortality at 1 µg/mL was found to be 80%, the mortality at 10 µg/mL came to 95% and the mortality at 100 µg/mL was 100%. Also, the mortality at 200 µg/mL in assay [1] came to 100%. In assay [2], the mortality at 0.1 µg/mL came to 75%, the mortality at 1 µg/mL was 85%, the mortality at 10 µg/mL came out at 90% and the mortality at 100 µg/mL is 90%. Also, the mortality at 200 µg/mL in assay [2] was determined as 100%.
As to `Fc1cccc(F)c1C1=NC(c2ccc(COc3ccc4ccccc4c3)cc2)CO1` (stereo not drawn) [Compound R2-24], in assay [1], the “acaricidal activity compared with etoxazole” value is “higher acaricidal activity than etoxazole”, the mortality at 0.001 µg/mL is 20%, the mortality at 0.01 µg/mL was determined as 50% and the mortality at 0.1 µg/mL came to 85%. Moreover, in assay [1], the mortality at 0.5 µg/mL was found to be 80%, the mortality at 1 µg/mL was 100%, the mortality at 10 µg/mL came out at 100% and the mortality at 100 µg/mL is 100%. Moreover, in assay [1], the mortality at 200 µg/mL came out at 100%. Further, in assay [2], the mortality at 0.001 µg/mL amounted to 28%, the mortality at 0.01 µg/mL came to 50%, the mortality at 0.1 µg/mL is 70% and the mortality at 0.5 µg/mL is 85%. In assay [2], the mortality at 1 µg/mL is 80%, the mortality at 10 µg/mL amounted to 95%, the mortality at 100 µg/mL turned out to be 100% and the mortality at 200 µg/mL was 100%.
`CS(=O)(=O)Oc1ccc(C2COC(c3c(F)cccc3F)=N2)cc1` (stereo not drawn) [Compound R3-1]: in assay [1], the mortality at 0.1 µg/mL stood at 50%, the mortality at 1 µg/mL worked out at 80%, the mortality at 10 µg/mL is 100% and the mortality at 100 µg/mL was determined as 100%. The mortality at 200 µg/mL in assay [1] stood at 100%. For the same molecule, in assay [2], the mortality at 1 µg/mL was determined as 70%, the mortality at 10 µg/mL was 90%, the mortality at 100 µg/mL came out at 95% and the mortality at 200 µg/mL was found to be 100%.
For `CCS(=O)(=O)Oc1ccc(C2COC(c3c(F)cccc3F)=N2)cc1` (stereo not drawn) [Compound R3-2], in assay [1], the mortality at 1 µg/mL was found to be 60%, the mortality at 10 µg/mL turned out to be 90%, the mortality at 100 µg/mL was determined as 100% and the mortality at 200 µg/mL stood at 100%. Besides, in assay [2], the mortality at 1 µg/mL amounted to 50%, the mortality at 10 µg/mL worked out at 80%, the mortality at 100 µg/mL amounted to 95% and the mortality at 200 µg/mL came to 100%.
As for `CCCS(=O)(=O)Oc1ccc(C2COC(c3c(F)cccc3F)=N2)cc1` (stereo not drawn) [Compound R3-3], in assay [1], the “acaricidal activity compared with etoxazole” value was “equivalent or better acaricidal activity compared with etoxazole”, the mortality at 0.05 µg/mL stood at 40%, the mortality at 0.1 µg/mL stood at 80% and the mortality at 0.5 µg/mL turned out to be 95%. For the same molecule, in assay [1], the mortality at 1 µg/mL is 100%, the mortality at 10 µg/mL came to 100%, the mortality at 100 µg/mL stood at 100% and the mortality at 200 µg/mL was determined as 100%. For the same molecule, in assay [2] (read-out: mortality of mite eggs (%), 0.05 mg/L), the mortality at 0.05 µg/mL is 20%. In assay [2], the mortality at 0.1 µg/mL came out at 50%, the mortality at 0.5 µg/mL was found to be 75%, the mortality at 1 µg/mL stood at 90% and the mortality at 10 µg/mL turned out to be 100%. In addition, in assay [2], the mortality at 100 µg/mL was 100% and the mortality at 200 µg/mL is 100%.
As for `C=CS(=O)(=O)Oc1ccc(C2COC(c3c(F)cccc3F)=N2)cc1` (stereo not drawn) [Compound R3-6], in assay [1], the mortality at 1 µg/mL is 60%, the mortality at 10 µg/mL is 80%, the mortality at 100 µg/mL amounted to 80% and the mortality at 200 µg/mL was determined as 100%. In assay [2], the mortality at 10 µg/mL worked out at 60%, the mortality at 100 µg/mL was 80% and the mortality at 200 µg/mL is 100%.
As for `O=S(=O)(Oc1ccc(C2COC(c3c(F)cccc3F)=N2)cc1)c1ccc(F)cc1` (stereo not drawn) [Compound R3-7], in assay [1], the mortality at 1 µg/mL was determined as 50%, the mortality at 10 µg/mL was 90%, the mortality at 100 µg/mL was found to be 100% and the mortality at 200 µg/mL turned out to be 100%. Further, in assay [2], the mortality at 1 µg/mL stood at 60%, the mortality at 10 µg/mL amounted to 90%, the mortality at 100 µg/mL amounted to 100% and the mortality at 200 µg/mL was 100%.
Turning to `O=S(=O)(Oc1ccc(C2COC(c3c(F)cccc3F)=N2)cc1)c1ccc(Cl)cc1` (stereo not drawn) [Compound R3-8], in assay [1], the mortality at 0.1 µg/mL was found to be 60%, the mortality at 1 µg/mL was found to be 85%, the mortality at 10 µg/mL amounted to 98% and the mortality at 100 µg/mL was found to be 100%. Besides, the mortality at 200 µg/mL in assay [1] is 100%. In assay [2], the mortality at 1 µg/mL was 70%, the mortality at 10 µg/mL stood at 90%, the mortality at 100 µg/mL was found to be 95% and the mortality at 200 µg/mL was 100%.
For `O=S(=O)(Oc1ccc(C2COC(c3c(F)cccc3F)=N2)cc1)c1ccc(Br)cc1` (stereo not drawn) [Compound R3-9], in assay [1], the “acaricidal activity compared with etoxazole” value was “equivalent or better acaricidal activity compared with etoxazole”, the mortality at 0.05 µg/mL came to 40%, the mortality at 0.1 µg/mL was 70% and the mortality at 0.5 µg/mL turned out to be 90%. Besides, in assay [1], the mortality at 1 µg/mL came out at 100%, the mortality at 10 µg/mL was 100%, the mortality at 100 µg/mL came out at 100% and the mortality at 200 µg/mL was 100%. In addition, in assay [2], the mortality at 0.1 µg/mL was found to be 30%, the mortality at 0.5 µg/mL was 60%, the mortality at 1 µg/mL stood at 75% and the mortality at 10 µg/mL was determined as 90%. Also, in assay [2], the mortality at 100 µg/mL was 100% and the mortality at 200 µg/mL worked out at 100%.
With `O=S(=O)(Oc1ccc(C2COC(c3c(F)cccc3F)=N2)cc1)c1ccc(I)cc1` (stereo not drawn) [Compound R3-10], in assay [1], the mortality at 1 µg/mL was determined as 65%, the mortality at 10 µg/mL turned out to be 88%, the mortality at 100 µg/mL worked out at 100% and the mortality at 200 µg/mL stood at 100%. For the same molecule, in assay [2], the mortality at 1 µg/mL amounted to 60%, the mortality at 10 µg/mL was 85%, the mortality at 100 µg/mL came to 100% and the mortality at 200 µg/mL is 100%.
Regarding `O=S(=O)(Oc1ccc(C2COC(c3c(F)cccc3F)=N2)cc1)c1ccccc1F` (stereo not drawn) [Compound R3-11], in assay [1], the mortality at 0.1 µg/mL was 50%, the mortality at 1 µg/mL is 80%, the mortality at 10 µg/mL is 90% and the mortality at 100 µg/mL came out at 100%. In addition, the mortality at 200 µg/mL in assay [1] was determined as 100%. Further, in assay [2], the mortality at 1 µg/mL is 50%, the mortality at 10 µg/mL is 80%, the mortality at 100 µg/mL stood at 95% and the mortality at 200 µg/mL is 100%.
